Each structure is given as a SMILES string.

Common to all, as to assay type: in vivo, rat
Test [1] deals with carrageenan-induced hyperalgesia in rats. Briefly: Carrageenan-induced hyperalgesia, mechanical nociceptive threshold after topical administration. The following applies: male rats; carrageenan i.d.; 30 min later topical indomethacin 1 μg/μl with protamine 2 μg/μl, 30 μL; P<0.0001. Here is the method: Male rats were treated with carrageenan (0.1% in 1 μg/5 μL) intradermally (i.d.), into the dorsum of the hind paw. Thirty minutes after the carrageenan administration, when hyperalgesia was established, animals received indomethacin combined with protamine or protamine alone, each in a volume of 30 μL, topically on the dorsum of one hind paw, at the site of the i.d. injection. Protamine was used at a concentration of 2 μg/μl and indomethacin was used at a concentration of 1 μg/μl. Mechanical nociceptive threshold was evaluated before carrageenan administration, and again 30 and 90 minutes after. […] Two-way repeated measures ANOVA, F(2.14)=40.46, P<0.0001. Bonferroni's multiple comparison post-hoc test. Data shown as mean±SEM; n=3 paws, per group.

Test [2] has as its system rats with chemotherapy-induced painful peripheral neuropathy (CIPN). Briefly: Oxaliplatin-induced hyperalgesia (CIPN), mechanical nociceptive threshold after topical administration. The following applies: oxaliplatin 2 mg/kg i.v. day 0, day 14 topical morphine 0.1 μg/μl with protamine 2 μg/μl, 30 μL on dorsum of hind paw, 30 and 60 min, P<0.0001. Here is the method: Female rats received oxaliplatin (2 mg/kg, i.v.) on day 0. On day 14, at which time oxaliplatin-induced hyperalgesia was established, morphine combined with protamine or protamine alone (dissolved in distillated water-dH20) or morphine (using saline as a vehicle), each in a volume of 30 μL, was administered topically on the dorsum of one hind paw, at the site of nociceptive threshold testing. Protamine was used at a concentration of 2 μg/μl and morphine was used at a concentration of 0.1 μg/μl. Mechanical nociceptive threshold was evaluated before and 14 days after oxaliplatin administration, and again 30 and 60 minutes after topical drug administration. […] Two-way repeated measures ANOVA, F(6.18)=26.85, P<0.0001. Bonferroni's multiple comparison post-hoc test. n=3 per group.
Male rats received oxaliplatin (2 mg/kg, i.v.) on day 0. On day 14, at which time oxaliplatin-induced hyperalgesia was established, morphine combined with protamine or protamine alone, each in a volume of 30 μL, was administered topically on the dorsum of one hind paw, at the site of nociceptive threshold testing. Protamine was used at a concentration of 2 μg/μl and morphine was used at a concentration of 0.1 μg/μl. Mechanical nociceptive threshold was evaluated before and 14 days after oxaliplatin administration, and again 30 and 60 minutes after topical administration. […]

Test [3] concerns PGE2 hyperalgesia in rats. Briefly: PGE2-induced hyperalgesia, mechanical nociceptive threshold after topical administration. The following applies: male rats; PGE2 100 ng/5 μL i.d.; 10 min later topical morphine 0.1 μg/μl with protamine 2 μg/μl, 30 μL; 30 and 60 min; P=0.0366. Here is the method: Male rats received PGE2 (100 ng/5 μL, intradermally, i.d.), on the dorsum of the hind paw followed, 10 minutes later, by morphine combined with protamine or protamine alone (dissolved in distillated water-dH20) or morphine (using saline as a vehicle), each in a volume of 30 μL, was administered topically on the dorsum of one hind paw, at the site of the i.d. PGE2 injection. Protamine was used at a concentration of 2 μg/μl and morphine was used at a concentration of 0.1 μg/μl. Mechanical nociceptive threshold was evaluated before intradermal PGE2 and again 30 and 60 min after topical administration. […] Two-way repeated measures ANOVA, F(2.8)=4.25, *P=0.0366. Bonferroni's multiple comparison post-hoc test. Data shown as mean±SEM; n=3 paws, per group.

`COc1ccc2c(c1)c(CC(=O)O)c(C)n2C(=O)c1ccc(Cl)cc1` [indomethacin]: the “effect on carrageenan-induced hyperalgesia (mechanical nociceptive threshold)” value in test [1] is recorded as “attenuated carrageenan-induced hyperalgesia”.
As to `CN1CC[C@]23c4c5ccc(O)c4O[C@H]2[C@@H](O)C=C[C@H]3[C@H]1C5` [morphine], the “effect on oxaliplatin-induced hyperalgesia (mechanical nociceptive threshold)” value in test [2] (female rats) and in test [2] (male rats) was “attenuated oxaliplatin-induced hyperalgesia” throughout. Moreover, in test [3], the “effect on PGE2-hyperalgesia (mechanical nociceptive threshold)” value is listed as “significant attenuation of PGE2-hyperalgesia”.

(Values after US20250017846A1, “TOPICAL ANALGESICS” (THE REGENTS OF THE UNIVERSITY OF CALIFORNIA, priority 2023, published 2025).)
